Experimental data taken from paper PMC11002875, “Linking triphenylphosphonium cation to a bicyclic hydroquinone improves their antiplatelet effect via the regulation of mitochondrial function” (Redox Biology, 2024).

Tests used:
[1] = tested on: platelets; assay: Oxygen consumption and extracellular acidification rate (Seahorse XFe24); type: cell-based, Human
Protocol: (§1) Human platelet purification. The blood sample was obtained from voluntary donors (10 days without antiplatelet medication) who agreed to participate after signing informed consent (Scientific Ethics Committee of the University of Talca N° 04–2022). Briefly, blood anticoagulated with acid-citrate-dextrose (ACD) was obtained in a 4:1 v/v ratio. The sample was centrifuged for 12 min at 250 g to obtain platelet-rich plasma (PRP). Subsequently, the PRP was centrifuged for 8 min at 900 g to obtain the platelet pellet. The plasma supernatant was removed, and the platelets were resuspended in Tyrodes buffer without calcium plus ACD in a ratio of 5:1 v/v. The platelets were centrifuged once more for 8 min at 900 g and the pellet was resuspended in Tyrodes buffer without calcium. Finally, the platelets were counted (Mindray BC-3000 Plus hematology counter, Japan), adjusted to the desired concentration, and used within 3 h.
Oxygen consumption and extracellular acidification rate. Oxygen consumption rate (OCR) and extracellular acidification rate (ECAR) were measured with a Seahorse XFe24 extracellular flux analyzer (Agilent, Santa Clara, CA, USA). Briefly, 100 μL of platelets washed in modified Tyrode-HEPES buffer were deposited (20–25 × 10^6 cells/well) and then centrifuged at 300 g for 10 min. Platelets were incubated with NP4 10 μM for 5 min, and then Tyrode's-HEPES buffer was removed and Seahorse medium (8.3 g/L DMEM, 1.85 g/L NaCl, 5 mM glucose, 1 mM pyruvate, 2 mM glutamine, 5 mM HEPES, pH 7.4) was added to a final volume of 600 μL [70]. OCR was measured before and after the sequential addition of 3 μg/mL collagen, 2.5 μM oligomycin, 1.4 μM FCCP, and 2 μM/2 μM antimycin A/rotenone. Non-mitochondrial OCR was subtracted from all measurements. Respiratory parameters obtained with Mito Stress Test (Supplementary Table 1) were calculated as follows: Baseline (baseline OCR), collagen (OCR after collagen addition), activation (collagen-basal), ATP-independent or proton leak (OCR resistant to oligomycin addition), ATP-linked respiration (basal-proton leak), maximum (OCR obtained after addition of FCCP), and spare (maximal-basal), coupling efficiency (OCR Basal – OCR ATP-indep)/OCR Basal). Respiratory parameters were calculated according to Refs. [66, 70, 73].

[2] = tested on: Washed platelets; assay: Cellular apoptosis (externalization of phosphatidylserine, annexin V); type: cell-based, Human; details: 1, 2, 5, 10 and 20 μM; 15 min
Protocol: as §1
Cellular apoptosis (externalization of phosphatidylserine). Washed platelets (200-250 × 10^6 platelets/mL) were incubated with the NP4 compound (1, 2, 5, 10 and 20 μM) for 15 min at 37 °C. Then 15 μL of the reaction was mixed with 25 μL of annexin V binding buffer (1x) and labeled with 2 μL of annexin V FITC (BD Pharmingen, FITC Annexin V Apoptosis Detection Kit I). […]

[3] = tested on: Whole blood; assay: Bleeding time in vitro, Innovance PFA-200 closure time; set-up: species or system Human; details: 10 μM, 10 min
Protocol: Bleeding time in vitro Innovance PFA-200 system. Blood was obtained in 3.2% citrate tubes which were allowed to settle for 30 min before the test. Whole blood was mixed with NP4 10 μM and incubated for 10 min. Subsequently, the sample was loaded into the Collagen/Epinephrine or Collagen/ADP cartridge and the closure time was measured in the Innovance PFA-200 system (Siemens Healthcare Diagnostics Products, Munich, Germany). Eptifibatide 10 μM was used as a control.

[4] = tested on: Washed platelets; assay: Intraplatelet (cytosolic) ROS levels (DHE); type: cell-based, Human; details: compounds 1, 5 and 10 μM, 10 min
Protocol: as §1
Intraplatelet ROS levels. Washed platelets (50 × 10^6 platelets/mL) were labeled with the dihydroethidium (DHE) probe 10 μM and incubated for 20 min at 37 °C protected from light. After, compounds (1, 5, and 10 μM) were added to the platelets and incubated for 10 min at 37 °C. The sample was acquired in the BD Facs Lyric flow cytometer (BD Biosciences, USA). Representative dot plots are available in Supplementary Figs. 18 and 27. As a positive control for ROS, antimycin A 20 μM was used.

[5] = tested on: Washed platelets; assay: Platelet activation markers in washed platelets (flow cytometry); type: cell-based, Human; details: collagen 2 μg/mL; compounds 1, 5 and 10 μM; vs activated control
Protocol: as §1
Platelet activation markers. Washed platelets (200-250 × 10^6 platelets/mL) were incubated with the compounds (1, 5 and 10 μM), then activated with collagen 2 μg/mL and incubated for 5 min at 37 °C. Aliquots of the reaction were then collected and labeled separately with human antibodies (BD Biosciences, San José, CA, USA) for P-selectin, CD63, activated GPIIb/IIIa (PAC-1), and fibrinogen to assess the levels of each marker on the platelet membrane. The sample was acquired using the BD Facs Lyric flow cytometer (BD Biosciences, USA). Representative dot plots are available in Supplementary Figures 8-11 and 20-23. In the case of the activation markers P-selectin and bound fibrinogen in PRP, the same procedure for washed platelets was performed with representative dot plots available in Supplementary Figs. 15 and 16. The platelet population was identified with anti-CD61-PE or anti-CD61-FITC (BD Biosciences, San José, CA, USA).

[6] = tested on: Washed platelets; assay: Intraplatelet calcium levels (Fluo-4-AM); type: cell-based, Human; details: compounds 1, 5 and 10 μM, 10 min
Protocol: as §1
Intraplatelet calcium levels. Washed platelets (200-250 × 10^6 platelets/mL) were labeled Fluo-4-AM probe with 0.5 μM and incubated for 20 min at room temperature protected from light. Subsequently, platelets were adjusted to a count of 50 × 10^6 platelets/mL, and compounds (1, 5, and 10 μM) were added and incubated for 10 min at 37 °C. The sample was acquired in the BD Facs Lyric flow cytometer (BD Biosciences, USA). Representative dot plots are available in Supplementary Figs. 13 and 26. As a control for increased intracellular calcium, P-trifluoromethoxyphenylhydrazone carbonylcyanide (FCCP) 1 μM was used.

With `Cc1c(C)c(O)c2c(c1O)C(=O)C(CCCC[P+](c1ccccc1)(c1ccccc1)c1ccccc1)=CC2(C)C.[Br-]` [NP4, (4-(5,8-dihydroxy-4,4,6,7-tetramethyl-1-oxo-1,4-dihydronaphthalen-2-yl)butyl)triphenyl phosphonium bromide] the “ATP-dep (OCRBasal – OCRATP-indep)” value ([1]; 10 µM) was 0,2 ± 0,22, the “Activation (OCRCollagen – OCRBasal)” value ([1]; 10 µM) was 0,15 ± 0,14 and the “Coupling efficiency ((OCRBasal – OCRATP-indep)/OCRBasal)” value ([1]; 10 µM) was 0,095 ± 0,075. For the same compound, the “Spare (OCRMaximum – OCRBasal)” value ([1]; 10 µM) was 1,03 ± 0,29, the “Basal (OCR/10^6 platelets)” value ([1]; 10 µM, Seahorse Mito Stress Test) was 1,33 ± 0,69 OCR/10^6 platelets and the “Maximum (OCR/10^6 platelets)” value ([1]; 10 µM, after 1.4 μM FCCP) was 2,28 ± 0,45 OCR/10^6 platelets. The “Collagen (OCR/10^6 platelets)” value ([1]; 10 µM, after 3 μg/mL collagen) was 1,29 ± 0,48 OCR/10^6 platelets, the “Non-mito (OCR/10^6 platelets)” value ([1]; 10 µM, after antimycin A/rotenone) was 0,04 ± 0,08 OCR/10^6 platelets and the “ATP-indep (OCR/10^6 platelets)” value ([1]; 10 µM, proton leak, after 2.5 μM oligomycin) was 1,69 ± 0,47 OCR/10^6 platelets. For the same compound, the “Basal extracellular acidification of the media” value ([1]; non-activated platelets, NP4 10 μM, control 87.5 ± 10.6) was 133.9 ± 14.1 mpH/min/10^6 platelets, the “Apoptosis (phosphatidylserine externalization)” value [2] was “none of the concentrations evaluated for NP4 showed significant effects” and the “Closure time PFA-200 Collagen/ADP” value [3] was “does not significantly alter”. The “Closure time PFA-200 Collagen/Epinephrine” value [3] was “does not significantly alter”, the “Cytosolic total ROS levels” value [4] was “neither NP4 nor NH4 significantly affected” and the melting point was 282 °C (dec.). For the same compound, the “Bound fibrinogen platelet activation marker” value [5] was “at the 10 μM concentration was able to significantly decrease”, the “CD63 platelet activation marker” value [5] was “at the 10 μM concentration was able to significantly decrease” and the “P-selectin platelet activation marker” value [5] was “at the 10 μM concentration was able to significantly decrease”. The “PAC-1 (activated GPIIb/IIIa) platelet activation marker” value [5] was “at the 10 μM concentration was able to significantly decrease” and the Intraplatelet calcium levels [6] was “increase it significantly”.
